In ChEMBL document CHEMBL1201861, “Genomics of Drug Sensitity in Cancer screening data, Wellcome Trust Sanger Institute”:

Assays:
Experiment in all cases: cells
[1] = tested on: KGN; assay type: functional, cell-based, Homo sapiens; conditions: Homo sapiens, KGN;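 also: growth inhibition of KGN cells, read out with a cell viability assay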
Description: SANGER: Inhibition of human KGN cell growth in a cell viability assay.

[2] = tested on: JVM-3; assay type: functional, cell-based, Homo sapiens; conditions: Homo sapiens, JVM-3;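 also: growth inhibition of human JVM-3 cells, read out with a cell viability assay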
Description: SANGER: Inhibition of human JVM-3 cell growth in a cell viability assay.

[3] = tested on: KG-1; assay type: functional, cell-based, Homo sapiens; conditions: Homo sapiens, KG-1;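 also: growth inhibition of KG-1 cells, read out by a cell viability assay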
Description: SANGER: Inhibition of human KG-1 cell growth in a cell viability assay.

[4] = tested on: NOMO-1; assay type: functional, cell-based, Homo sapiens; conditions: Homo sapiens, NOMO-1;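 also: growth inhibition of human NOMO-1 cells measured by a cell viability assay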
Description: SANGER: Inhibition of human NOMO-1 cell growth in a cell viability assay.

[5] = tested on: COLO-320-HSR; assay type: functional, cell-based, Homo sapiens; conditions: Homo sapiens, COLO-320-HSR;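 also: growth inhibition of COLO-320-HSR cells, determined with a cell viability assay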
Description: SANGER: Inhibition of human COLO-320-HSR cell growth in a cell viability assay.

[6] = tested on: NCI-H747; assay type: functional, cell-based, Homo sapiens; conditions: Homo sapiens, NCI-H747;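 also: growth inhibition of human NCI-H747 cells, read out by a cell viability assay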
Description: SANGER: Inhibition of human NCI-H747 cell growth in a cell viability assay.

[7] = tested on: KLE; assay type: functional, cell-based; conditions: Homo sapiens;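 also: growth inhibition of human KLE cells, read out with a cell viability assay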
Description: SANGER: Inhibition of human KLE cell growth in a cell viability assay.

[8] = tested on: SF-539; assay type: functional, cell-based, Homo sapiens; conditions: Homo sapiens, SF-539;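 also: Read-out is a cell viability assay, with IC50 reflecting inhibition of cell growth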
Description: SANGER: Inhibition of human SF539 cell growth in a cell viability assay.

[9] = tested on: TE-12; assay type: functional, cell-based, Homo sapiens; conditions: Homo sapiens, TE-12;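 also: growth inhibition of TE-12 cells, read out by a cell viability assay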
Description: SANGER: Inhibition of human TE-12 cell growth in a cell viability assay.

[10] = tested on: OS-RC-2; assay type: functional, cell-based, Homo sapiens; conditions: Homo sapiens, OS-RC-2;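 also: growth inhibition of human OS-RC-2 cells, measured by a cell viability assay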
Description: SANGER: Inhibition of human OS-RC-2 cell growth in a cell viability assay.

[11] = tested on: NH-12; assay type: functional, cell-based, Homo sapiens; conditions: Homo sapiens, NH-12;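 also: growth inhibition of NH-12 cells, read out with a cell viability assay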
Description: SANGER: Inhibition of human NH-12 cell growth in a cell viability assay.

[12] = tested on: KU812 cell line; assay type: functional, cell-based, Homo sapiens; conditions: Homo sapiens, KU812;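 also: growth inhibition of KU812 cells, read out with a cell viability assay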
Description: SANGER: Inhibition of human KU812 cell growth in a cell viability assay.

[13] = tested on: KARPAS-299; assay type: functional, cell-based, Homo sapiens; conditions: Homo sapiens, KARPAS-299
Description: SANGER: Inhibition of human KARPAS-299 cell growth in a cell viability assay.

[14] = tested on: MZ7-mel; assay type: functional, cell-based, Homo sapiens; conditions: Homo sapiens, MZ7-mel;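 also: growth inhibition of human MZ7-mel cells, measured by a cell viability assay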
Description: SANGER: Inhibition of human MZ7-mel cell growth in a cell viability assay.

[15] = tested on: NCI-H1650; assay type: functional, cell-based, Homo sapiens; conditions: Homo sapiens, NCI-H1650;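 also: growth inhibition of human NCI-H1650 cells measured by a cell viability assay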
Description: SANGER: Inhibition of human NCI-H1650 cell growth in a cell viability assay.

[16] = tested on: KINGS-1; assay type: functional, cell-based, Homo sapiens; conditions: Homo sapiens, KINGS-1;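 also: cell viability assay measuring suppression of KINGS-1 cell growth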
Description: SANGER: Inhibition of human KINGS-1 cell growth in a cell viability assay.

[17] = tested on: ML-2; assay type: functional, cell-based, Homo sapiens; conditions: Homo sapiens, ML-2;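 also: growth inhibition of ML-2 cells, measured with a cell viability readout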
Description: SANGER: Inhibition of human ML-2 cell growth in a cell viability assay.

[18] = tested on: CCRF-CEM; assay type: functional, cell-based, Homo sapiens; conditions: Homo sapiens, CCRF-CEM;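 also: inhibition of CCRF-CEM cell growth, measured by a cell viability assay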
Description: SANGER: Inhibition of human CCRF-CEM cell growth in a cell viability assay.

[19] = tested on: NOS-1; assay type: functional, cell-based, Homo sapiens; conditions: Homo sapiens, NOS-1;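 also: growth inhibition of the human NOS-1 cell line, read out with a cell viability assay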
Description: SANGER: Inhibition of human NOS-1 cell growth in a cell viability assay.

[20] = tested on: LB996-RCC; assay type: functional, cell-based, Homo sapiens; conditions: Homo sapiens, LB996-RCC
Description: SANGER: Inhibition of human LB996-RCC cell growth in a cell viability assay.

[21] = tested on: ES6; assay type: functional, cell-based; conditions: Homo sapiens;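 also: growth inhibition of human ES6 cells, read out with a cell viability assay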
Description: SANGER: Inhibition of human ES6 cell growth in a cell viability assay.

[22] = tested on: LOX IMVI; assay type: functional, cell-based, Homo sapiens; conditions: Homo sapiens, LOX IMVI
Description: SANGER: Inhibition of human LOXIMVI cell growth in a cell viability assay.

[23] = tested on: NTERA-2-cl-D1; assay type: functional, cell-based, Homo sapiens; conditions: Homo sapiens, NTERA-2-cl-D1;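 also: inhibition of cell growth, measured with a cell viability assay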
Description: SANGER: Inhibition of human NTERA-S-cl-D1 cell growth in a cell viability assay.

[24] = tested on: MHH-NB-11; assay type: functional, cell-based, Homo sapiens; conditions: Homo sapiens, MHH-NB-11;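 also: growth inhibition of human MHH-NB-11 cells, read out by a cell viability assay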
Description: SANGER: Inhibition of human MHH-NB-11 cell growth in a cell viability assay.

[25] = tested on: QIMR-WIL; assay type: functional, cell-based, Homo sapiens; conditions: Homo sapiens, QIMR-WIL;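 also: growth inhibition of QIMR-WIL cells, read out with a cell viability assay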
Description: SANGER: Inhibition of human QIMR-WIL cell growth in a cell viability assay.

[26] = tested on: ES5; assay type: functional, cell-based, Homo sapiens; conditions: Homo sapiens, ES5;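 also: growth inhibition of human ES5 cells, read out by a cell viability assay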
Description: SANGER: Inhibition of human ES5 cell growth in a cell viability assay.

[27] = tested on: HL-60; assay type: functional, cell-based, Homo sapiens; conditions: Homo sapiens, HL-60;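 also: growth inhibition of human HL-60 cells, read out with a cell viability assay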
Description: SANGER: Inhibition of human HL-60 cell growth in a cell viability assay.

[28] = tested on: LS-513; assay type: functional, cell-based, Homo sapiens; conditions: Homo sapiens, LS-513
Description: SANGER: Inhibition of human LS-513 cell growth in a cell viability assay.

[29] = tested on: MEG-01; assay type: functional, cell-based, Homo sapiens; conditions: Homo sapiens, MEG-01;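 also: growth inhibition of MEG-01 cells, read out by a cell viability assay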
Description: SANGER: Inhibition of human MEG-01 cell growth in a cell viability assay.

[30] = tested on: EW-13; assay type: functional, cell-based, Homo sapiens; conditions: Homo sapiens, EW-13; read-out: IC50;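 also: growth inhibition of EW-13 cells, read out with a cell viability assay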
Description: SANGER: Inhibition of human EW-13 cell growth in a cell viability assay.

[31] = tested on: PSN1; assay type: functional, cell-based, Homo sapiens; conditions: Homo sapiens, PSN1;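 also: suppression of growth of human PSN1 cells, read out by a cell viability assay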
Description: SANGER: Inhibition of human PSN1 cell growth in a cell viability assay.

[32] = tested on: Ramos-2G6-4C10; assay type: functional, cell-based, Homo sapiens; conditions: Homo sapiens, Ramos-2G6-4C10;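 also: growth inhibition of the cell line, measured by a cell viability read-out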
Description: SANGER: Inhibition of human Ramos-2G6-4C10 cell growth in a cell viability assay.

[33] = tested on: D-263MG; assay type: functional, cell-based, Homo sapiens; conditions: Homo sapiens, D-263MG
Description: SANGER: Inhibition of human D-263MG cell growth in a cell viability assay.

[34] = tested on: JVM-2; assay type: functional, cell-based, Homo sapiens; conditions: Homo sapiens, JVM-2;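 also: growth inhibition of JVM-2 cells determined by a cell viability assay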
Description: SANGER: Inhibition of human JVM-2 cell growth in a cell viability assay.

[35] = tested on: BV-173; assay type: functional, cell-based, Homo sapiens; conditions: Homo sapiens, BV-173
Description: SANGER: Inhibition of human BV-173 cell growth in a cell viability assay.

[36] = tested on: HH; assay type: functional, cell-based, Homo sapiens; conditions: Homo sapiens, HH
Description: SANGER: Inhibition of human HH cell growth in a cell viability assay.

[37] = tested on: ES7; assay type: functional, cell-based, Homo sapiens; conditions: Homo sapiens, ES7;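 also: growth inhibition of cultured human ES7 cells, read out as cell viability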
Description: SANGER: Inhibition of human ES7 cell growth in a cell viability assay.

[38] = tested on: Mo; assay type: functional, cell-based, Homo sapiens; conditions: Homo sapiens, Mo
Description: SANGER: Inhibition of human Mo-T cell growth in a cell viability assay.

[39] = tested on: HCC2157; assay type: functional, cell-based, Homo sapiens; conditions: Homo sapiens, HCC2157;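 also: growth inhibition of the cancer cell line, read out as cell viability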
Description: SANGER: Inhibition of human HCC2157 cell growth in a cell viability assay.

[40] = tested on: NCI-H226; assay type: functional, cell-based, Homo sapiens; conditions: Homo sapiens, NCI-H226;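 also: cell viability read-out used to gauge growth inhibition of the cells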
Description: SANGER: Inhibition of human NCI-H226 cell growth in a cell viability assay.

[41] = tested on: TE-11; assay type: functional, cell-based; conditions: Homo sapiens;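 also: growth inhibition of human TE-11 cells, read out by a cell viability assay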
Description: SANGER: Inhibition of human TE-11 cell growth in a cell viability assay.

[42] = tested on: 8-MG-BA; assay type: functional, cell-based, Homo sapiens; conditions: Homo sapiens, 8-MG-BA;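 also: growth inhibition of 8-MG-BA cells, read out with a cell viability assay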
Description: SANGER: Inhibition of human 8-MG-BA cell growth in a cell viability assay.

[43] = tested on: LU-134-A; assay type: functional, cell-based, Homo sapiens; conditions: Homo sapiens, LU-134-A
Description: SANGER: Inhibition of human LU-134-A cell growth in a cell viability assay.

[44] = tested on: TE-9; assay type: functional, cell-based, Homo sapiens; conditions: Homo sapiens, TE-9;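 also: cell growth inhibition, measured with a cell viability readout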
Description: SANGER: Inhibition of human TE-9 cell growth in a cell viability assay.

[45] = tested on: GB-1; assay type: functional, cell-based, Homo sapiens; conditions: Homo sapiens, GB-1;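 also: growth of GB-1 cells judged by a viability assay, IC50 marks the concentration inhibiting growth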
Description: SANGER: Inhibition of human GB-1 cell growth in a cell viability assay.

[46] = tested on: SW872; assay type: functional, cell-based, Homo sapiens; conditions: Homo sapiens, SW872;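 also: growth inhibition of SW872 cells, read out by a viability assay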
Description: SANGER: Inhibition of human SW872 cell growth in a cell viability assay.

[47] = tested on: SNU1; assay type: functional, cell-based, Homo sapiens; conditions: Homo sapiens, SNU1;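 also: growth inhibition of human NCI-SNU-1 cells, measured with a cell viability assay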
Description: SANGER: Inhibition of human NCI-SNU-1 cell growth in a cell viability assay.

[48] = tested on: KE-37; assay type: functional, cell-based, Homo sapiens; conditions: Homo sapiens, KE-37;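 also: growth inhibition of KE-37 cells, read out with a cell viability assay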
Description: SANGER: Inhibition of human KE-37 cell growth in a cell viability assay.

[49] = tested on: DSH1; assay type: functional, cell-based; conditions: Homo sapiens;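 also: growth inhibition of human DSH1 cells, measured with a cell viability readout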
Description: SANGER: Inhibition of human DSH1 cell growth in a cell viability assay.

[50] = tested on: ES8; assay type: functional, cell-based, Homo sapiens; conditions: Homo sapiens, ES8;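 also: growth inhibition of human ES8 cells, read out with a cell viability assay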
Description: SANGER: Inhibition of human ES8 cell growth in a cell viability assay.

## CC1(C)CCC(c2ccc(Cl)cc2)=C(CN2CCN(c3ccc(C(=O)NS(=O)(=O)c4ccc(N[C@H](CCN5CCOCC5)CSc5ccccc5)c(S(=O)(=O)C(F)(F)F)c4)cc3)CC2)C1 [NAVITOCLAX]
[1]
  IC50: > 2 µM
[2]
  IC50: > 2 µM
[3]
  IC50: 0.0449 µM
[4]
  IC50: > 2 µM
[5]
  IC50: > 2 µM
[6]
  IC50: > 2 µM
[7]
  IC50: > 2 µM
[8]
  IC50: > 2 µM
[9]
  IC50: > 2 µM
[10]
  IC50: > 2 µM
[11]
  IC50: 0.107 µM
[12]
  IC50: > 2 µM
[13]
  IC50: > 2 µM
[14]
  IC50: > 2 µM
[15]
  IC50: > 2 µM
[16]
  IC50: > 2 µM
[17]
  IC50: 0.0198 µM
[18]
  IC50: 0.335 µM
[19]
  IC50: > 2 µM
[20]
  IC50: > 2 µM
[21]
  IC50: > 2 µM
[22]
  IC50: > 2 µM
[23]
  IC50: 0.5 µM
[24]
  IC50: > 2 µM
[25]
  IC50: 0.0429 µM
[26]
  IC50: > 2 µM
[27]
  IC50: 0.0291 µM
[28]
  IC50: > 2 µM
[29]
  IC50: 0.583 µM
[30]
  IC50: 0.583 µM
[31]
  IC50: > 2 µM
[32]
  IC50: 1.74 µM
[33]
  IC50: > 2 µM
[34]
  IC50: > 2 µM
[35]
  IC50: 0.0231 µM
[36]
  IC50: > 2 µM
[37]
  IC50: 1.28 µM
[38]
  IC50: > 2 µM
[39]
  IC50: 1.19 µM
[40]
  IC50: > 2 µM
[41]
  IC50: > 2 µM
[42]
  IC50: > 2 µM
[43]
  IC50: 0.187 µM
[44]
  IC50: > 2 µM
[45]
  IC50: > 2 µM
[46]
  IC50: > 2 µM
[47]
  IC50: 1.37 µM
[48]
  IC50: 0.114 µM
[49]
  IC50: > 2 µM
[50]
  IC50: > 2 µM

## Cc1cc(N2CCOCC2)cc2[nH]c(-c3c(NC[C@@H](O)c4cccc(Cl)c4)cc[nH]c3=O)nc12
[1]
  IC50: 1.09 µM
[2]
  IC50: > 5.12 µM
[3]
  IC50: > 5.12 µM
[4]
  IC50: > 5.12 µM
[5]
  IC50: 0.934 µM
[6]
  IC50: 0.68 µM
[7]
  IC50: 3.62 µM
[8]
  IC50: > 5.12 µM
[9]
  IC50: 0.176 µM
[10]
  IC50: 1.46 µM
[11]
  IC50: > 5.12 µM
[12]
  IC50: > 5.12 µM
[13]
  IC50: 3.85 µM
[14]
  IC50: > 5.12 µM
[15]
  IC50: > 5.12 µM
[16]
  IC50: > 5.12 µM
[17]
  IC50: 0.192 µM
[18]
  IC50: > 5.12 µM
[19]
  IC50: 0.0744 µM
[20]
  IC50: 0.816 µM
[21]
  IC50: 0.425 µM
[22]
  IC50: > 5.12 µM
[23]
  IC50: 0.257 µM
[24]
  IC50: > 5.12 µM
[25]
  IC50: > 5.12 µM
[26]
  IC50: > 5.12 µM
[27]
  IC50: 0.286 µM
[28]
  IC50: 4.17 µM
[29]
  IC50: 4.21 µM
[30]
  IC50: > 5.12 µM
[31]
  IC50: 0.395 µM
[32]
  IC50: > 5.12 µM
[33]
  IC50: > 5.12 µM
[34]
  IC50: > 5.12 µM
[35]
  IC50: > 5.12 µM
[36]
  IC50: > 5.12 µM
[37]
  IC50: > 5.12 µM
[38]
  IC50: > 5.12 µM
[39]
  IC50: > 5.12 µM
[40]
  IC50: > 5.12 µM
[41]
  IC50: 0.152 µM
[42]
  IC50: 3.93 µM
[43]
  IC50: 1.6 µM
[44]
  IC50: 2.5 µM
[45]
  IC50: 0.495 µM
[46]
  IC50: 1.98 µM
[47]
  IC50: > 5.12 µM
[48]
  IC50: > 5.12 µM
[49]
  IC50: > 5.12 µM
[50]
  IC50: 2.3 µM
